27 compounds from US11084829B2, “Ubiquitin-specific-processing protease 7 (USP7) modulators and uses thereof” (RAPT THERAPEUTICS, INC., priority 2018, dated 2021) can be followed below.

Chain of USP7 (Q93009 whole entry): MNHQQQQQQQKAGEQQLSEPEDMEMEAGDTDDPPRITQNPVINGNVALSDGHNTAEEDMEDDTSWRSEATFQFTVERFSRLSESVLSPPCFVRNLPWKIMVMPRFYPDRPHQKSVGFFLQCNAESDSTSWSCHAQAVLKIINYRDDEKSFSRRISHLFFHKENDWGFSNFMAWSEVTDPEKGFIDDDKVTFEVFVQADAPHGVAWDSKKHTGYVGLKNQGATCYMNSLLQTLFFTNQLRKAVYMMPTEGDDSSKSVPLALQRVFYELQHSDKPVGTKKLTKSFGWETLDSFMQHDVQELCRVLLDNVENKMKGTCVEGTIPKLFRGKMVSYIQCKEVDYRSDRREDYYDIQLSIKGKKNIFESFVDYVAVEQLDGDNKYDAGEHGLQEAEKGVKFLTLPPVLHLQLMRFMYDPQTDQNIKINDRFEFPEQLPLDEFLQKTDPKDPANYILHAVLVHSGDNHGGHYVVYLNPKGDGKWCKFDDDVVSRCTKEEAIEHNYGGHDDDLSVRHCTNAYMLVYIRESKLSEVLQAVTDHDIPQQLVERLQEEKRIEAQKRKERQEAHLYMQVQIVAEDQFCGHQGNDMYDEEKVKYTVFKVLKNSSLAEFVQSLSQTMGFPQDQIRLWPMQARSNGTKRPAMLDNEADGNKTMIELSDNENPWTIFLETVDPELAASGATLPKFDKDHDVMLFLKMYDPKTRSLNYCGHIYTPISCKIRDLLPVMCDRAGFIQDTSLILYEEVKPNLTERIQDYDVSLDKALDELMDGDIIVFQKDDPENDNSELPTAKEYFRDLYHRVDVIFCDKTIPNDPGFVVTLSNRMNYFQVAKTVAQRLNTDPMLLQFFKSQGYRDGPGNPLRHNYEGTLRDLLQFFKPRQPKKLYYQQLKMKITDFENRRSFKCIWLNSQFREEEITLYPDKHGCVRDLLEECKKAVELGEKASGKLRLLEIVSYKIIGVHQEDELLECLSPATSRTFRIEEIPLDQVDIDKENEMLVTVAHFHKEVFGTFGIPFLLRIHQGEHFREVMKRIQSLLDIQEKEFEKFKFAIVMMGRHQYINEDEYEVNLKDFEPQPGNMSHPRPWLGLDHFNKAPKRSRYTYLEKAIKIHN

For this test, the target named is USP7 (Homo sapiens, UniProt Q93009). As to the kind of experiment: USP7 inhibitory potency (IC50). The test is classed as biochemical. As for the experimental part:
Activity for compounds described herein is provided in Table 2, wherein potency levels are provided as follows: (Potency: USP7 IC50: A<0.01 μM; B=0.01-0.1 μM; C=>0.1 μM.
Usually IC50 stands for the midpoint of a concentration-inhibition curve. Regarding `Cc1cc(Cl)cc(-c2ncnc3ccsc23)c1CC1CNCCO1` (stereo not drawn) [Example 173, 2-(4-chloro-2-methyl-6-(thieno[3,2-d]pyrimidin-4-yl)benzyl)morpholine], the IC50 was > 100 nM. Under `Cc1cc(Cl)cc(-c2ncnc3cc(CN4C(=O)C5CC5C4=O)sc23)c1CC1CNCC2(CCC2)O1` (stereo not drawn) [Example 207, 3-((4-(2-((5-oxa-8-azaspiro[3.5]nonan-6-yl)methyl)-5-chloro-3-methylphenyl)thieno[3,2-d]pyrimidin-6-yl)methyl)-3-azabicyclo[3.1.0]hexane-2,4-dione] stands < 10 nM. The value for `Cc1cc(Cl)cc(-c2ncnc3cc(CN4C(=O)C5C(C4=O)C5(C)C)sc23)c1C[C@@H]1CNCCO1` (stereo partly drawn) [Example 196, 3-((4-(5-chloro-3-methyl-2-(((R)-morpholin-2-yl)methyl)phenyl)thieno[3,2-d]pyrimidin-6-yl)methyl)-6,6-dimethyl-3-azabicyclo[3.1.0]hexane-2,4-dione] was < 10 nM; that for `Cc1cc(Cl)cc(-c2ncnc3cc(CN4C(=O)CCN(C)C4=O)sc23)c1C[C@@H]1CNCC(C)(C)O1` [Example 217, (R)-3-((4-(5-chloro-2-((6,6-dimethylmorpholin-2-yl)methyl)-3-methylphenyl)thieno[3,2-d]pyrimidin-6-yl)methyl)-1-methyldihydropyrimidine-2,4(1H,3H)-dione] was < 10 nM. In the case of `Cc1cc(Cl)cc(-c2ncnc3cc(CN4C(=O)CCC4C)sc23)c1CN1[C@@H](C)CNC[C@@H]1C` (stereo partly drawn) [Example 91, 1-((4-(5-chloro-2-(((2S,6S)-2,6-dimethylpiperazin-1-yl)methyl)-3-methylphenyl)thieno[3,2-d]pyrimidin-6-yl)methyl)-5-methylpyrrolidin-2-one], the IC50 is > 100 nM. `Cc1cc(Cl)cc(-c2ncnc3cc(CN4C(=O)COC4=O)sc23)c1CN1C[C@@H](C)NC[C@@H]1C` [Example 76, 3-((4-(5-chloro-2-(((2S,5R)-2,5-dimethylpiperazin-1-yl)methyl)-3-methylphenyl)thieno[3,2-d]pyrimidin-6-yl)methyl)oxazolidine-2,4-dione] registered a half-maximal inhibitory concentration (IC50) of 10 to 100 nM. Under `Cc1cc(Cl)cc(-c2ccnc3cc(CN4C(=O)C5CC5C4=O)sc23)c1C[C@@H]1CNC[C@@H](C)O1` (stereo partly drawn) [Example 99, 3-((7-(5-chloro-3-methyl-2-(((2R,6R)-6-methylmorpholin-2-yl)methyl)phenyl)thieno[3,2-b]pyridin-2-yl)methyl)-3-azabicyclo[3.1.0]hexane-2,4-dione] stands < 10 nM; under `Cc1cc(Cl)cc(-c2ncnc3cc(CN4C(=O)CC[C@@H]4C(F)F)sc23)c1C[C@@H]1CNCC(C)(C)O1` [Example 242, (R)-1-((4-(5-chloro-2-(((R)-6,6-dimethylmorpholin-2-yl)methyl)-3-methylphenyl)thieno[3,2-d]pyrimidin-6-yl)methyl)-5-(difluoromethyl)pyrrolidin-2-one], < 10 nM; under `Cc1cc(Cl)cc(-c2ccnc3cc(CN4C(=O)CCC4=O)sc23)c1CN1CCNCC1C(F)F` (stereo not drawn) [Example 16, 1-((7-(5-chloro-2-((2-(difluoromethyl)piperazin-1-yl)methyl)-3-methylphenyl)thieno[3,2-b]pyridin-2-yl)methyl)pyrrolidine-2,5-dione], 10 to 100 nM. Regarding `Cc1cc(Cl)cc(-c2ccnc3cc(Cn4c(=O)ccn(CC(F)(F)F)c4=O)sc23)c1CN1CCNCCC1=O` [Example 255, 3-((7-(5-chloro-3-methyl-2-((7-oxo-1,4-diazepan-1-yl)methyl)phenyl)thieno[3,2-b]pyridin-2-yl)methyl)-1-(2,2,2-trifluoroethyl)pyrimidine-2,4(1H,3H)-dione], the IC50 lay within 10 to 100 nM. Under `Cc1cc(C#N)cc(-c2ncnc3cc(CN4C(=O)C5CC5C4=O)sc23)c1CN1CCNC[C@@H]1C` (stereo partly drawn) [Example 60, 3-(6-((2,4-dioxo-3-azabicyclo[3.1.0]hexan-3-yl)methyl)thieno[3,2-d]pyrimidin-4-yl)-5-methyl-4-(((S)-2-methylpiperazin-1-yl)methyl)benzonitrile] stands 10 to 100 nM. On to `Cc1cc(Cl)cc(-c2ncnc3cc(CN4C(=O)CC(C)NC4=O)sc23)c1C[C@@H]1CNCCO1` (stereo partly drawn) [Example 248, 3-((4-(5-chloro-3-methyl-2-(((R)-morpholin-2-yl)methyl)phenyl)thieno[3,2-d]pyrimidin-6-yl)methyl)-6-methyldihydropyrimidine-2,4(1H,3H)-dione], for which the half-maximal inhibitory concentration (IC50) was < 10 nM. Regarding `Cc1cc(Cl)cc(-c2ncnc3cc(Cn4c(=O)ccn(C5CC5)c4=O)sc23)c1CC1CNCCO1` (stereo not drawn) [Example 165, 3-((4-(5-chloro-3-methyl-2-(morpholin-2-ylmethyl)phenyl)thieno[3,2-d]pyrimidin-6-yl)methyl)-1-cyclopropylpyrimidine-2,4(1H,3H)-dione], the IC50 is < 10 nM. The value for `CCN1CCN(Cc2c(C)cc(Cl)cc2-c2ncnc3cc(CN4C(=O)C5C(C4=O)C5(C)C)sc23)[C@@H](C)C1` (stereo partly drawn) [Example 54, 3-((4-(5-chloro-2-(((S)-4-ethyl-2-methylpiperazin-1-yl)methyl)-3-methylphenyl)thieno[3,2-d]pyrimidin-6-yl)methyl)-6,6-dimethyl-3-azabicyclo[3.1.0]hexane-2,4-dione] was < 10 nM; that for `Cc1cc(Cl)cc(-c2ccnc3c(F)c(CN4C(=O)C5CC5C4=O)sc23)c1C[C@@H]1CNCCO1` (stereo partly drawn) [Example 125, 3-((7-(5-chloro-3-methyl-2-(((R)-morpholin-2-yl)methyl)phenyl)-3-fluorothieno[3,2-b]pyridin-2-yl)methyl)-3-azabicyclo[3.1.0]hexane-2,4-dione] was < 10 nM. For `Cc1cc(Cl)cc(-c2ccnc3cc(CN4C(=O)CCC4=O)sc23)c1CN1CCCNCC1` [Example 17, 1-((7-(2-((1,4-diazepan-1-yl)methyl)-5-chloro-3-methylphenyl)thieno[3,2-b]pyridin-2-yl)methyl)pyrrolidine-2,5-dione], the 50% inhibitory concentration (IC50) is < 10 nM. The value for `O=C1CCC(=O)N1Cc1cc2ncnc(-c3cc(Cl)cc(Cl)c3CC3CNCCO3)c2s1` (stereo not drawn) [Example 204, 1-((4-(3,5-dichloro-2-(morpholin-2-ylmethyl)phenyl)thieno[3,2-d]pyrimidin-6-yl)methyl)pyrrolidine-2,5-dione] was < 10 nM; that for `Cc1cc(Cl)cc(-c2ncnc3cc(CN4C(=O)C5CC5C4=O)sc23)c1CN1[C@@H](C)CN(C(=O)C(F)(F)F)C[C@@H]1C` (stereo partly drawn) [Example 84, 3-((4-(5-chloro-2-(((2S,6S)-2,6-dimethyl-4-(2,2,2-trifluoroacetyl)piperazin-1-yl)methyl)-3-methylphenyl)thieno[3,2-d]pyrimidin-6-yl)methyl)-3-azabicyclo[3.1.0]hexane-2,4-dione] was < 10 nM.

Regarding `Cc1cc(Cl)cc(-c2ncnc3cc(Cn4c(=O)ccn(C5CCC5)c4=O)sc23)c1CC1CNCCO1` (stereo not drawn) [Example 166, 3-((4-(5-chloro-3-methyl-2-(morpholin-2-ylmethyl)phenyl)thieno[3,2-d]pyrimidin-6-yl)methyl)-1-cyclobutylpyrimidine-2,4(1H,3H)-dione], the IC50 is < 10 nM. In the case of `CCN1CCN(Cc2c(C)cc(Cl)cc2-c2ccnc3cc(CN4C(=O)C5C(C4=O)C5(C)C)sc23)[C@@H](C)C1` (stereo partly drawn) [Example 24, 3-((7-(5-chloro-2-(((S)-4-ethyl-2-methylpiperazin-1-yl)methyl)-3-methylphenyl)thieno[3,2-b]pyridin-2-yl)methyl)-6,6-dimethyl-3-azabicyclo[3.1.0]hexane-2,4-dione], the IC50 is < 10 nM.

Consider `Cc1cc(Cl)cc(-c2ncnc3cc(C(C)N4C(=O)C5C(C4=O)C5(C)C)sc23)c1C[C@@H]1CNCCO1` (stereo partly drawn) [Example 209, 3-(1-(4-(5-chloro-3-methyl-2-(((R)-morpholin-2-yl)methyl)phenyl)thieno[3,2-d]pyrimidin-6-yl)ethyl)-6,6-dimethyl-3-azabicyclo[3.1.0]hexane-2,4-dione], for which the IC50 was < 10 nM. Under `Cc1cc(Cl)cc(-c2ncnc3cc(CN4C(=O)[C@H]5CCCN5C4=O)sc23)c1CN1[C@@H](C)CNC[C@@H]1C` [Example 89, (R)-2-((4-(5-chloro-2-(((2S,6S)-2,6-dimethylpiperazin-1-yl)methyl)-3-methylphenyl)thieno[3,2-d]pyrimidin-6-yl)methyl)tetrahydro-1H-pyrrolo[1,2-c]imidazole-1,3(2H)-dione] stands < 10 nM; under `Cc1cc(Cl)cc(-c2ncnc3cc(CN4C(=O)C5CC5C4=O)sc23)c1CC1CNCCS1` (stereo not drawn) [Example 186, 3-((4-(5-chloro-3-methyl-2-(thiomorpholin-2-ylmethyl)phenyl)thieno[3,2-d]pyrimidin-6-yl)methyl)-3-azabicyclo[3.1.0]hexane-2,4-dione], < 10 nM; under `CCN1CC(=O)N(Cc2cc3ncnc(-c4cc(Cl)cc(C)c4CN4C[C@@H](C)NC[C@@H]4C)c3s2)C1=O` [Example 83, 3-((4-(5-chloro-2-(((2S,5R)-2,5-dimethylpiperazin-1-yl)methyl)-3-methylphenyl)thieno[3,2-d]pyrimidin-6-yl)methyl)-1-ethylimidazolidine-2,4-dione], < 10 nM. The value for `Cc1cc(Cl)cc(-c2ccnc3cc(CN4C(=O)C5CC5C4=O)sc23)c1C(=O)N1[C@@H](C)CNC[C@@H]1C` (stereo partly drawn) [Example 35, 3-((7-(5-chloro-2-((2S,6S)-2,6-dimethylpiperazine-1-carbonyl)-3-methylphenyl)thieno[3,2-b]pyridin-2-yl)methyl)-3-azabicyclo[3.1.0]hexane-2,4-dione] was 10 to 100 nM; that for `Cc1cc(Cl)cc(-c2ccnc3cc(CN4C(=O)CCC4=O)sc23)c1CN1C[C@@H](C)N[C@H](C)C1` [Example 26, 1-((7-(5-chloro-2-(((3R,5R)-3,5-dimethylpiperazin-1-yl)methyl)-3-methylphenyl)thieno[3,2-b]pyridin-2-yl)methyl)pyrrolidine-2,5-dione] was < 10 nM. Under `Cc1cc(Cl)cc(-c2ncnc3cc(CN4C(=O)C5CC5C4=O)sc23)c1CC1CNCCO1` (stereo not drawn) [Example 152, 3-((4-(5-chloro-3-methyl-2-(morpholin-2-ylmethyl)phenyl)thieno[3,2-d]pyrimidin-6-yl)methyl)-3-azabicyclo[3.1.0]hexane-2,4-dione] stands < 10 nM.
